The source of these data is ChEMBL document CHEMBL5331094, “Identification of 2,4,5-trisubstituted-2,4-dihydro-3H-1,2,4-triazol-3-one-based small molecules as selective BRD9 binders” (Eur J Med Chem, 2023).

Molecules are shown by their SMILES.

In data set [1] the target is T1, Bromodomain-containing protein 9 (Homo sapiens) (UniProt Q9H8M2).
T1 sequence (whole entry): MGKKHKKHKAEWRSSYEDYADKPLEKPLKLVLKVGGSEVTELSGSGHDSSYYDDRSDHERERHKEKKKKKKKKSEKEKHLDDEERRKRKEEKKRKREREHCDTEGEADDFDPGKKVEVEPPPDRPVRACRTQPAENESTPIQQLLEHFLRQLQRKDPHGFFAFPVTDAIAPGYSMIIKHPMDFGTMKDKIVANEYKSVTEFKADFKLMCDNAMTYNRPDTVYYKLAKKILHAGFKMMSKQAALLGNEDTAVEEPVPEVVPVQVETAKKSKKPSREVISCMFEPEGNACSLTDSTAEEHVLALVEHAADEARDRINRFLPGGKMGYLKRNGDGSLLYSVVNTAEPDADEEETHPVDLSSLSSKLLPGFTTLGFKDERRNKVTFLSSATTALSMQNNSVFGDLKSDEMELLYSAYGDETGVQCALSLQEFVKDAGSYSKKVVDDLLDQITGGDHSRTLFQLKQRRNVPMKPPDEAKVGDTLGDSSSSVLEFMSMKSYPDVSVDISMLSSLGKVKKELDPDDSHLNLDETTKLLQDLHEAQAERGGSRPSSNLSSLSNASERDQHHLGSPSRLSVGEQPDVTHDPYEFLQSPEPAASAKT
Nature of the data set: Binding affinity of GST-tagged BRD9 domain (unknown origin) to histone H4Ac (1 to 21 residues) assessed as residual binding at 10 uM by alphascreen analysis relative to control.

For data set [2], the target named is T2, Bromodomain-containing protein 9 (Homo sapiens, UniProt Q9H8M2).
T2 sequence (Q9H8M2 whole entry): T1 sequence (whole entry)
Nature of the data set: Inhibition of BRD9 (unknown origin) by alpha screen analysis.

The target in data set [3] is Bromodomain-containing protein 2 (Homo sapiens) (UniProt P25440). Briefly: Binding affinity of recombinant His-tagged BRD2-BD1 (unknown origin) to histone H4Ac (1 to 21 residues) K5/8/12/Ac-Biotin-OH assessed as residual binding at 10 uM incubated for 30 mins by alphascreen analysis relative to control.
For data set [4] the target is unchanged. Briefly: Binding affinity of recombinant His-tagged BRD2-BD2 (unknown origin) to histone H4Ac (1 to 21 residues) K5/8/12/Ac-Biotin-OH assessed as residual binding at 10 uM incubated for 30 mins by alphascreen analysis relative to control.
Data set [5] has as its target Bromodomain-containing protein 3 (Homo sapiens) (UniProt Q15059). Nature of the data set: Binding affinity of recombinant His-tagged BRD3-BD1 (unknown origin) to histone H4Ac (1 to 21 residues) K5/8/12/Ac-Biotin-OH assessed as residual binding at 10 uM incubated for 30 mins by alphascreen analysis relative to control.
Data set [6] shares this target. Briefly: Binding affinity of recombinant His-tagged BRD3-BD2 (unknown origin) to histone H4Ac (1 to 21 residues) K5/8/12/Ac-Biotin-OH assessed as residual binding at 10 uM incubated for 30 mins by alphascreen analysis relative to control.
The target of data set [7] is Bromodomain-containing protein 4 (Homo sapiens) (UniProt O60885). Briefly: Binding affinity of recombinant His-tagged BRD4-BD1 (unknown origin) to histone H4Ac (1 to 21 residues) K5/8/12/Ac-Biotin-OH assessed as residual binding at 10 uM incubated for 30 mins by alphascreen analysis relative to control.
The target is the same in data set [8]. Briefly: Binding affinity of recombinant His-tagged BRD4-BD2 (unknown origin) to histone H4Ac (1 to 21 residues) K5/8/12/Ac-Biotin-OH assessed as residual binding at 10 uM incubated for 30 mins by alphascreen analysis relative to control.
Data set [9] addresses Bromodomain testis-specific protein (Homo sapiens) (UniProt Q58F21). Nature of the data set: Binding affinity of recombinant His-tagged BRDT-BD1 (unknown origin) to histone H4Ac (1 to 21 residues) K5/8/12/Ac-Biotin-OH assessed as residual binding at 10 uM incubated for 30 mins by alphascreen analysis relative to control.
Data set [10] addresses Bromodomain adjacent to zinc finger domain protein 2B (Homo sapiens) (UniProt Q9UIF8). Nature of the data set: Binding affinity of recombinant His-tagged BAZ2B (unknown origin) to histone H3 (1 to 21 residues) K9/14Ac-Biotin-OH assessed as residual binding at 10 uM incubated for 30 mins by alphascreen analysis relative to control.
In data set [11] the target is CREB-binding protein (Homo sapiens) (UniProt Q92793). Nature of the data set: Binding affinity of recombinant His-tagged CREBBP (unknown origin) to histone H4Ac (1 to 21 residues) K5/8/12/Ac-Biotin-OH assessed as residual binding at 10 uM incubated for 30 mins by alphascreen analysis relative to control.
For data set [12], the system named is Jurkat. Briefly: Cytotoxicity against human Jurkat cells assessed as cell viability measured after 24 hrs by MTT assay. It is filed as functional, cell-based.
Data set [13] concerns MCF7. Briefly: Cytotoxicity against human MCF7 cells assessed as cell viability measured after 24 hrs by MTT assay. The note with it: MCF7, 24 h. It is filed as functional, cell-based.
Data set [14] concerns A-375. Briefly: Cytotoxicity against human A-375 cells assessed as cell viability measured after 24 hrs by MTT assay. It is filed as functional, cell-based. Particulars: A-375, 24 h.
For data set [15], the system named is Caco-2. Nature of the data set: Cytotoxicity against human Caco-2 cells assessed as cell viability measured after 24 hrs by MTT assay. The note with it: Caco-2, 24 h. It counts as functional, cell-based.
Data set [16] relates to HaCaT. Briefly: Cytotoxicity against human HaCaT cells assessed as cell viability measured after 24 hrs by MTT assay. It counts as functional, cell-based.
Data set [17] can be described thus: Cytotoxicity against human erythrocytes assessed as cell viability measured after 24 hrs by MTT assay. It is filed as toxicity, cell-based, Erythrocyte.
In data set [18] the target is ATPase family AAA domain-containing protein 2 (Homo sapiens) (UniProt Q6PL18). Nature of the data set: Binding affinity of recombinant His-tagged ATAD2 (unknown origin) to histone H4Ac (1 to 21 residues) K5/8/12/Ac-Biotin-OH assessed as residual binding at 10 uM incubated for 30 mins by alphascreen analysis relative to control.
Data set [19] deals with Chromatin remodeling regulator CECR2 (Homo sapiens) (UniProt Q9BXF3). Briefly: Binding affinity of recombinant His-tagged CECR2 (unknown origin) to histone H4Ac (1 to 21 residues) K5/8/12/Ac-Biotin-OH assessed as residual binding at 10 uM incubated for 30 mins by alphascreen analysis relative to control.
For data set [20], the target named is SWI/SNF-related matrix-associated actin-dependent regulator of chromatin subfamily A member 4 (Homo sapiens) (UniProt P51532). Briefly: Binding affinity of recombinant His-tagged SMARCA4 (unknown origin) to histone H3 (1 to 30 residues) K4/18/23/27Ac assessed as residual binding at 10 uM incubated for 30 mins by alphascreen analysis relative to control.
In data set [21] the target is Transcription initiation factor TFIID subunit 1 (Homo sapiens) (UniProt P21675). Nature of the data set: Binding affinity of recombinant His-tagged TAF1 (unknown origin) to histone H4Ac (1 to 21 residues) K5/8/12/Ac-Biotin-OH assessed as residual binding at 10 uM incubated for 30 mins by alphascreen analysis relative to control.
For data set [22], the target named is Bromodomain and PHD finger-containing protein 3 (Homo sapiens) (UniProt Q9ULD4). Nature of the data set: Binding affinity of recombinant His-tagged BRPF-3 (unknown origin) to histone H4Ac (1 to 21 residues) K5/8/12/Ac-Biotin-OH assessed as residual binding at 10 uM incubated for 30 mins by alphascreen analysis relative to control.
Data set [23] has as its target Bromodomain-containing protein 1 (Homo sapiens) (UniProt O95696). Nature of the data set: Binding affinity of recombinant His-tagged BRD1 (unknown origin) to histone H4Ac (1 to 21 residues) K5/8/12/Ac-Biotin-OH assessed as residual binding at 10 uM incubated for 30 mins by alphascreen analysis relative to control.
Data set [24] has as its target Nucleosome-remodeling factor subunit BPTF (Homo sapiens) (UniProt Q12830). Briefly: Binding affinity of recombinant His-tagged BPTF (unknown origin) to histone H4Ac (1 to 21 residues) K5/8/12/Ac-Biotin-OH assessed as residual binding at 10 uM incubated for 30 mins by alphascreen analysis relative to control.
Data set [25] has as its target Bromodomain-containing protein 7 (Homo sapiens) (UniProt Q9NPI1). Nature of the data set: Binding affinity of recombinant His-tagged […] (unknown origin) to histone H3 (1 to 30 residues) K4/18/23/27Ac assessed as residual binding at 10 uM incubated for 30 mins by alphascreen analysis relative to control.
Data set [26] deals with Bromodomain-containing protein 7 (Homo sapiens, UniProt Q9NPI1). Briefly: Inhibition of recombinant His-tagged […] (unknown origin) to histone H3 (1 to 30 residues) K4/18/23/27Ac incubated for 30 mins by alphascreen analysis.
Chain of Bromodomain-containing protein 7 (Q9NPI1 whole entry, the tested form may be a part): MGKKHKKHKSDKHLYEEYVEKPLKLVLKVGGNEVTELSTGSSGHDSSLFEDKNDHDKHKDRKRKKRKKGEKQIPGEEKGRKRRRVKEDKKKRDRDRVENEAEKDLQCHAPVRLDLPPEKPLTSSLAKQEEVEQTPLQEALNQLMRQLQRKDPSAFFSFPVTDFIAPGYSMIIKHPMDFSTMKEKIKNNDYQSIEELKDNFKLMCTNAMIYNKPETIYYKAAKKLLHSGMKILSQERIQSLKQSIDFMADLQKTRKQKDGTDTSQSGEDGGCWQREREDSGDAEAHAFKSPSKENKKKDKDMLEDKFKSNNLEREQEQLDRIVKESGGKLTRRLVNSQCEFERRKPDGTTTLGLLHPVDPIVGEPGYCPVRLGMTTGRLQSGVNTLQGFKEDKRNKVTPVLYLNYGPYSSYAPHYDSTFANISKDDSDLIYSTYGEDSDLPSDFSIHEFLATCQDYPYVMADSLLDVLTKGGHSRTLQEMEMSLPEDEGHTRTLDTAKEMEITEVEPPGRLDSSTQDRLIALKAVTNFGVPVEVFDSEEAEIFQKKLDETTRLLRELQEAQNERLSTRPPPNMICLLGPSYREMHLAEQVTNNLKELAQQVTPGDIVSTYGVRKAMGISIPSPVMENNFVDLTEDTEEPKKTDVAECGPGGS

Chain of CREB-binding protein (Homo sapiens) (Q92793 2-2442 limits assumed): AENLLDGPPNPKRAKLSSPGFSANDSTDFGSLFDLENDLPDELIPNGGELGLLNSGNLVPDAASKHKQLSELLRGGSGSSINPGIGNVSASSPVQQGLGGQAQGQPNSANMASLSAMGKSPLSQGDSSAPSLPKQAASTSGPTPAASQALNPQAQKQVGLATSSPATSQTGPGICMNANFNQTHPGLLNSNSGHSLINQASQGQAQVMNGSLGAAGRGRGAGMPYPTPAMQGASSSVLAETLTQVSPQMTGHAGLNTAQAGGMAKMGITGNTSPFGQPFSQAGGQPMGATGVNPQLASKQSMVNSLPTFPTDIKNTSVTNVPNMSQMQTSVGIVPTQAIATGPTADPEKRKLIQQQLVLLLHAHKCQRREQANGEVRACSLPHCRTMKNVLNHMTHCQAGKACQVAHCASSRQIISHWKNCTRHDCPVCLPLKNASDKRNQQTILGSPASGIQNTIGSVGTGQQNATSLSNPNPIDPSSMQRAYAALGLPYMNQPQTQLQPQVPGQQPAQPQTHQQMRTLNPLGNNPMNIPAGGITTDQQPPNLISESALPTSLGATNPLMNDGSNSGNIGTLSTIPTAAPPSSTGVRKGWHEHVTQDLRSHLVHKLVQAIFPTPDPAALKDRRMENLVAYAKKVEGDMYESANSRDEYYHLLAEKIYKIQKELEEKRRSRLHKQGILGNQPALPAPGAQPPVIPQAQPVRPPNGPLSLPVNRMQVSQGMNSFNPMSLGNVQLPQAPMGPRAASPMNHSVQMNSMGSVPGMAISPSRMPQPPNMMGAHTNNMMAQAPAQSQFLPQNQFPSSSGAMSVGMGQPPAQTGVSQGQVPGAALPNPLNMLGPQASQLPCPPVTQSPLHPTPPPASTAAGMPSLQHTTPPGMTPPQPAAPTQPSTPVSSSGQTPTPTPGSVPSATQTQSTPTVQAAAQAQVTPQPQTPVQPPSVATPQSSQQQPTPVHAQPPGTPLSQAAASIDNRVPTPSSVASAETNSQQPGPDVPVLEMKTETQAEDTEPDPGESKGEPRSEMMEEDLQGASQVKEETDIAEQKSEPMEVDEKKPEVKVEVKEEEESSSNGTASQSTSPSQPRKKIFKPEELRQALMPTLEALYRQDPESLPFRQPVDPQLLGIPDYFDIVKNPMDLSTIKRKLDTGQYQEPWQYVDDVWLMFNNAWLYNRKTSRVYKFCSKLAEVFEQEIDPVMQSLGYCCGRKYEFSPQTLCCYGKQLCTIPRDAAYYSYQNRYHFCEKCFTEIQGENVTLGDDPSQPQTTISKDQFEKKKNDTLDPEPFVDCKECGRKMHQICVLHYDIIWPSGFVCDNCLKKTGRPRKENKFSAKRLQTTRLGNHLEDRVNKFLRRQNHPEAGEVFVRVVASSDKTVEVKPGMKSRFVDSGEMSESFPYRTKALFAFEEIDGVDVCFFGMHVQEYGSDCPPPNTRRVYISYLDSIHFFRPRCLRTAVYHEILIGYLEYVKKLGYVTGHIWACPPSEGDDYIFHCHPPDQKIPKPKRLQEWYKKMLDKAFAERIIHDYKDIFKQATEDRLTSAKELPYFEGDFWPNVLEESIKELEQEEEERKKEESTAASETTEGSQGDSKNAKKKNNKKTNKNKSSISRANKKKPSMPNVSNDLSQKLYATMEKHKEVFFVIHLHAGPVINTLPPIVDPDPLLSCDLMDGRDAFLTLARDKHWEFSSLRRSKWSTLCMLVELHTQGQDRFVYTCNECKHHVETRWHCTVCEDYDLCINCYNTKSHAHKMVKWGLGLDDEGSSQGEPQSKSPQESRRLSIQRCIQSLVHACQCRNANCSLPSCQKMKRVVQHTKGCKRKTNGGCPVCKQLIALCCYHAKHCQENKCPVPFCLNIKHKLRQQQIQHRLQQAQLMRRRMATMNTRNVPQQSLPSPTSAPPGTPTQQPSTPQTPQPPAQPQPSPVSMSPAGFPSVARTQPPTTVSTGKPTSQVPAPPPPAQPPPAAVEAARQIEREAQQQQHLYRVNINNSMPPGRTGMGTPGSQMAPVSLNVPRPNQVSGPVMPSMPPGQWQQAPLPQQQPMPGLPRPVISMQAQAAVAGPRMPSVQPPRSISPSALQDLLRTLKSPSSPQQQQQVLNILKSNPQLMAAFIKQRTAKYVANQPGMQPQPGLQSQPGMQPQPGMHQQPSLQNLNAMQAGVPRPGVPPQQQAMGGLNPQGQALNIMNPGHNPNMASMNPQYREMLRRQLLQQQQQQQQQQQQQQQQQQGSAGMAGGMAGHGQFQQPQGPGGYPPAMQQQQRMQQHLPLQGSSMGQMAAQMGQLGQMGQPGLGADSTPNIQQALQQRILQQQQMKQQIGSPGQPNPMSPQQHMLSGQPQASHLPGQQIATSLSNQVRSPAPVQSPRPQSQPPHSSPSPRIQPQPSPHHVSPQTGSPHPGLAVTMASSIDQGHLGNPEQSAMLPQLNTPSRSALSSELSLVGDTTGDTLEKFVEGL
Chain of Bromodomain-containing protein 3 (Homo sapiens) (Q15059 2-726 limits assumed): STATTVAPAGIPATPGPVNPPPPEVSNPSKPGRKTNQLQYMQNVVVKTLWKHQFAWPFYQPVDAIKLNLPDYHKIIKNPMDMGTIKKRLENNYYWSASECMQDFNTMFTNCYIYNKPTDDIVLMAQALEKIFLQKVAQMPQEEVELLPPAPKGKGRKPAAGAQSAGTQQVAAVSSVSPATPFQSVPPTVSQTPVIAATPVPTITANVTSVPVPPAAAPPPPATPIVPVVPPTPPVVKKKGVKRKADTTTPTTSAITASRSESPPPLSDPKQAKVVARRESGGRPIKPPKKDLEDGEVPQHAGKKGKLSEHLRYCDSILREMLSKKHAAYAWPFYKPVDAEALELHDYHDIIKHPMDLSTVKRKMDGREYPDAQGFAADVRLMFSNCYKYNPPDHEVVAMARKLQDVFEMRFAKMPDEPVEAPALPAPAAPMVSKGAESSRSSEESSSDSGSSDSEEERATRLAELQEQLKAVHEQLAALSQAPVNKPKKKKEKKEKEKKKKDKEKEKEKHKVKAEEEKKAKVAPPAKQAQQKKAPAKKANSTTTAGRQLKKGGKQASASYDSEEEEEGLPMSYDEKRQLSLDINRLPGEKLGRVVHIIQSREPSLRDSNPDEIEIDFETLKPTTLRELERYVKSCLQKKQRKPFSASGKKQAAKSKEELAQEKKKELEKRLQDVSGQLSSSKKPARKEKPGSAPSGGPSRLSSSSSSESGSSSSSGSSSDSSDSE
Chain of Bromodomain-containing protein 2 (Homo sapiens) (P25440 whole entry, looked up, the tested form may be a part): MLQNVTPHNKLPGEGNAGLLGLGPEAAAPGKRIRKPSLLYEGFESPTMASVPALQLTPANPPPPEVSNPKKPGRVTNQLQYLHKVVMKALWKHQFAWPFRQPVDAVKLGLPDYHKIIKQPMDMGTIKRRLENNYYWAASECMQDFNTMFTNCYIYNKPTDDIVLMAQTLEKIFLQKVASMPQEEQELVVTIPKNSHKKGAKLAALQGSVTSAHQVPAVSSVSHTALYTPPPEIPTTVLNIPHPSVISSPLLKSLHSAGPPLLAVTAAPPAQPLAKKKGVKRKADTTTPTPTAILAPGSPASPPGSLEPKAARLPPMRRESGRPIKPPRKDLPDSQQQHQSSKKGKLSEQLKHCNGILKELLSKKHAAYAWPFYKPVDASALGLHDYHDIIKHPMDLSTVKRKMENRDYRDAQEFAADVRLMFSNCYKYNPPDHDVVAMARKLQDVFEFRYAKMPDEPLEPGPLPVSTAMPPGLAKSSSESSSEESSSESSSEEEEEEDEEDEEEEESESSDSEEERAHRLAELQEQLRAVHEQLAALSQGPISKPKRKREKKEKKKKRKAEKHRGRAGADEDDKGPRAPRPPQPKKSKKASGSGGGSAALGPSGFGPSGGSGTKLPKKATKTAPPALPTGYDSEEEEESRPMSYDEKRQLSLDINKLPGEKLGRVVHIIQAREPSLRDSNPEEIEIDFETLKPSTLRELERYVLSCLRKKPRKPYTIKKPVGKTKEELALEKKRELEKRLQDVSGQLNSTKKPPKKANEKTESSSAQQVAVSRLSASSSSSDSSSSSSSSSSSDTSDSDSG
Chain of Bromodomain-containing protein 7 (Homo sapiens) (Q9NPI1 whole entry, the tested form may be a part): as the sequence (Q9NPI1 whole entry, the tested form may be a part) above

In the case of `CCn1nc(C)n(-c2ccc3c(c2)OCO3)c1=O`, the Activity is 35.6% in data set [1]; > 100% in [3]; > 100% in data set [4]; 74.8% in [5]; 99.9% in [6]; 96.2% in [7]. Besides, the Activity in data set [8] is 99.2%; in data set [9], > 100%; in data set [10], 97.5%; in data set [11], > 100%. For the same compound, the IC50 was 5.44 µM in data set [2]; > 500 µM in data set [12]; > 500 µM in data set [13]; > 500 µM in data set [14]; > 500 µM in [15]; > 500 µM in [16]. In addition, in [17], the IC50 at 24 h was > 500 µM.

Turning to `Cc1nn(C)c(=O)n1-c1ccc2c(c1)OCO2`, the Activity in data set [1] was 58.8%; in data set [3] it was > 100%; in [4] it was 94.4%; in data set [5], 97.3%; in data set [6], 94.9%; in data set [7], > 100%. The Activity in data set [8] is 99.3%; in data set [9] it was 92.5%; in [10], 92.8%; in data set [11], > 100%. Further, the IC50 in data set [2] was 11.1 µM; in data set [12], 290 µM; in data set [13], 400 µM; in [14], 400 µM; in data set [15] it was 370 µM; in data set [16], > 500 µM. Moreover, the IC50 at 24 h in data set [17] is > 500 µM.

With `CCc1nn(C)c(=O)n1-c1ccc2c(c1)OCO2`, the Activity in data set [1] was 21.1%; in [3], 98.9%; in data set [4], > 100%; in [5] it was 96.5%; in data set [6], > 100%; in data set [7] it was > 100%. The Activity in [8] was 88.6%; in [9], > 100%; in data set [10] it was > 100%; in data set [11], 97.7%; in data set [18] it was > 100%; in data set [19] it was 92.6%. In addition, the Activity is 96.5% in [20]; 77.7% in data set [21]; 94.2% in data set [22]; 97.3% in [23]; 95.5% in [24]; 75.8% in data set [25]. In addition, the 50% inhibitory concentration (IC50) in data set [2] came out at 0.14 µM; in data set [26], 71.4 µM; in [12], 145 µM; in [13], 500 µM; in data set [14] it was 270 µM; in data set [15], 330 µM. In addition, the IC50 in [16] was > 500 µM. In [17], the IC50 at 24 h is > 500 µM.
